{"source": "patent US11028077B2", "about": "“Crystalline pharmaceutical and methods of preparation and use thereof” (NOVARTIS PHARMACEUTICALS CORPORATION, priority 2008, dated 2021)", "key": {"[1]": {"system": "SEB stimulated IL-2 release in whole human blood", "assay": "cells", "type": "cell-based", "conditions": "read-out: IC50, inhibition of SEB stimulated IL-2 release"}, "dogs (beagles)": {"system": "dogs (beagles)", "assay": "Cardiovascular effects in conscious telemetry-instrumented dogs, IV bolus", "type": "in vivo, dog", "conditions": "IV bolus injection"}, "Solubility studies": {"assay": "Solubility studies", "type": "physicochemical"}, "[2]": {"assay": "Skin transport studies on microtomed human skin", "type": "in vitro ADME", "conditions": "1% (w/w) prototypes; [^14C]-compound", "description": "Prototypes have been developed and tested on microtomed human skin from elective surgery at 1% (w/w). The forms include gels, ointment, or lotion. […]"}, "[3]": {"assay": "Rat ocular pharmacokinetics of [14C]-compound (ocular tissue levels)", "type": "in vivo", "conditions": "rat, for 16 hrs"}, "[4]": {"system": "attachment of Jurkat cells to ICAM-1", "assay": "T-cell adhesion assay using Jurkat cells", "type": "cell-based, human", "description": "A reported LFA-1 antagonist was used as the positive control.\nJurkat cells were labeled with an 8 μM solution of BCECF-AM (2′,7′-bis-(2-carboxyethyl)-5-(and-6)-carboxyfluorescein) in growth media at room temperature for 15 minutes. […] Non-adherent cells were removed by washing and centrifugation at 100 g for 1 minute. Adherent cells were determined as adherent fluorescent units on a fluorescent plate reader."}, "dogs [5]": {"system": "dogs", "assay": "Pilot ocular tolerance / PK of topically administered compound in dogs", "type": "in vivo, dog", "conditions": "up to 10% strength at 3 doses/day"}, "[6]": {"conditions": "rabbit, in vivo, topical or ocular, 0.35 mg"}, "[7]": {"assay": "Plasma PK after single IV bolus dose in rats", "type": "in vivo, rat"}, "[8]": {"assay": "Single dose ADME study with [14C]-compound in dogs", "type": "in vivo", "conditions": "dog, for 16 hrs", "description": "No differences in results from male and female dogs were observed."}, "dogs [9]": {"system": "dogs", "assay": "Acute toxicity, escalating single dose IV and 7-day repeated dose with TK in dogs", "type": "in vivo, dog", "conditions": "escalating single dose IV and 7-day repeated dose", "description": "4. Acute Toxicity Studies: For single dose IV in rats, the no observable adverse effect level (NOAEL) was 10 mg/kg IV. For escalating single dose IV and 7-day repeated dose with TK (toxicokinetics) in dogs, the NOAEL was 10 mg/kg IV. For single dose ocular tolerance in rabbits, the NOAEL was 3.5 mg/eye/3× per day (10%)."}, "rats [10]": {"system": "rats", "assay": "CNS effects in rats, single bolus IV injection", "type": "in vivo, rat", "conditions": "10.0 mg/kg IV, 1 minute to 6 hours postdose, 2/6 animals at each time point", "description": "No effect on any other parameters was observed."}, "rabbits": {"system": "rabbits", "assay": "13-week ocular toxicity study in rabbits with 4-week recovery (toxicity and TK)", "conditions": "rabbits (3%)"}, "rats [11]": {"system": "rats", "assay": "Pilot rat dermal study", "type": "in vivo", "conditions": "1% lotion, ointment, gel, DMSO; TID seven days, 10 mg/cm^2", "description": "The safety and tolerability of prototypical dermal formulations (1% lotion, ointment, and gel) were assessed on rats given TID for seven consecutive days—approximately 6 cm^2 with 10 mg/cm^2."}, "dogs [12]": {"system": "dogs", "assay": "13-week ocular toxicity study in dogs with 4-week recovery (toxicity and TK)", "conditions": "dogs (3%)"}, "[13]": {"assay": "Phase 1 clinical trial, plasma PK analysis", "type": "in vivo, human", "description": "Samples were also obtained at 48 hours post dose on Days 1, 14 and 27 and a single blood sample was collected at the follow-up visit at the end of the study."}, "[14]": {"system": "HuT 78 cell adhesion to 5dICAM-Ig", "assay": "Human T-cell adhesion assay (HuT 78 cell adhesion to 5dICAM-Ig)", "type": "cell-based", "conditions": "HuT78, HuT 78 cells, read-out: EC50, inhibition of T-cell adhesion", "description": "The T-cell adhesion assay was performed using the human T-lymphoid cell line HuT 78 (ATCC TIB-161). Goat anti-HuIgG(Fc) was diluted to 2 μg/ml in PBS and 96-well plates were coated with 50 μl/well at 37° C. for 1 h. Plates were washed with PBS and blocked for 1 h at room temperature with 1% BSA in PBS. 5 domain ICAM-Ig was diluted to 100 ng/ml in PBS and 50 μl/well was added to the plates O/N at 4° C. HuT 78 cells were centrifuged at 100 g and the cell pellet was treated with 5 mM EDTA for ˜5′ at 37° C. in a 5% CO2 incubator. Cells were washed in 0.14 M NaCl, 0.02 M Hepes, 0.2% glucose and 0.1 mM MnCl2 (assay buffer) and centrifuged. The cells were resuspended in assay buffer to 3.0×10^6 c/ml Inhibitors were diluted in assay buffer to a 2× final concentration and pre-incubated with HuT78 cells for 30′ at room temperature. 100 μl/well of cells and inhibitors were added to the plates and incubated at room temperature for 1 h. 100 μl/well PBS was added and the plates were sealed and centrifuged inverted at 100 g for 5′. Unattached cells were flicked out of the plate and excess PBS was blotted on a paper towel. […] The enzyme reaction was stopped with […] 50 mM glycine/5 mM EDTA and read on a platereader at […]. HUT 78 cell adhesion to 5dICAM-Ig was measured using the p-nitrophenyl n-acetyl-f3-D-glucosaminide method of Landegren, U. (1984). […]"}, "[15]": {"conditions": "single IV bolus 30.0 mg/kg, from rat safety pharmacology study"}}}
{"smiles": "CS(=O)(=O)c1cccc(C[C@H](NC(=O)c2c(Cl)cc3c(c2Cl)CCN(C(=O)c2ccc4ccoc4c2)C3)C(=O)O)c1", "note": "[compound of Formula I]", "values": [{"measurement": "IC50", "setting": "[1]", "value": 69, "unit": "nM"}, {"measurement": "effects on electrocardiography or hemodynamic parameters", "setting": "dogs (beagles)", "value": "No effects on electrocardiography or hemodynamic parameters"}, {"measurement": "solubility", "setting": "Solubility studies; ethanol/glycol/transcutol solution", "value": "10 % (w/w)"}, {"measurement": "solubility", "setting": "Solubility studies; water/glycol/transcutol solution", "value": "2 % (w/w)"}, {"measurement": "concentration in dermis", "setting": "[2]", "value": "greater than 10 micromolar"}, {"measurement": "dose penetration", "setting": "[2]", "value": "2-4%"}, {"measurement": "levels in conjunctiva/cornea", "setting": "[3]", "value": "> 100", "unit": "nM"}, {"measurement": "Jurkat cell attachment to ICAM-1", "setting": "[4]", "value": "inhibition of Jurkat cell attachment with increasing dose"}, {"measurement": "dose response curve and IC50", "setting": "[4]; compared with positive control, a reported LFA-1 antagonist", "value": "comparable to that of the known direct competitive LFA-1 antagonist"}, {"measurement": "ocular safety and tolerability", "setting": "dogs [5]", "value": "safe and well tolerated"}, {"measurement": "Mean tear AUC", "setting": "[6]", "value": 18931, "unit": "ng·h/mL"}, {"measurement": "AUC0-n", "setting": "[7]; single IV bolus 10.0 mg/kg", "value": 728, "unit": "ng·h/mL"}, {"measurement": "CL", "setting": "[7]; single IV bolus 10.0 mg/kg", "value": 173, "unit": "mL/min/kg"}, {"measurement": "Cmax", "setting": "[7]; single IV bolus 10.0 mg/kg", "value": 1056, "unit": "ng/mL"}, {"measurement": "MRT", "setting": "[7]; single IV bolus 10.0 mg/kg", "value": 0.920, "unit": "h"}, {"measurement": "T1/2", "setting": "[7]; single IV bolus 10.0 mg/kg", "value": 3.76, "unit": "h"}, {"measurement": "Vss", "setting": "[7]; single IV bolus 10.0 mg/kg", "value": 9.56, "unit": "L/kg"}, {"measurement": "AUC0-n", "setting": "[7]; [15]", "value": 2345.5, "unit": "ng·h/mL"}, {"measurement": "Cmax", "setting": "[7]; [15]", "value": 5117.3, "unit": "ng/mL"}, {"measurement": "levels in conjunctiva/cornea", "setting": "[8]", "value": "greater than 1 micromolar"}, {"measurement": "NOAEL", "setting": "dogs [9]", "value": 10, "unit": "mg/kg"}, {"measurement": "CNS observation", "setting": "rats [10]", "value": "Transient miosis"}, {"measurement": "NOAEL", "setting": "rabbits", "value": 1.05, "unit": "mg/eye/3× per day"}, {"measurement": "serum level", "setting": "rats [11]", "value": "detectable in serum"}, {"measurement": "NOAEL", "setting": "dogs [12]", "value": 1.05, "unit": "mg/eye/3× per day"}, {"measurement": "plasma concentration", "setting": "[13]; 0.1% dose strength, single and multiple doses, all timepoints (BLOQ)", "value": "< 0.500", "unit": "ng/mL"}, {"measurement": "plasma concentration", "setting": "[13]; 0.3% dose strength, single and multiple doses, all timepoints (BLOQ)", "value": "< 0.500", "unit": "ng/mL"}, {"measurement": "plasma concentration", "setting": "[13]; 1% dose strength, 3 of 5 subjects (BLOQ)", "value": "< 0.500", "unit": "ng/mL"}, {"measurement": "plasma concentration", "setting": "[13]; 5% dose strength, generally not detectable after the first hour", "value": "< 3", "unit": "ng/mL"}, {"measurement": "EC50", "setting": "[14]", "value": "< 50", "unit": "nM"}]}
